According to PMC11189555, “Aryl amino acetamides prevent Plasmodium falciparum ring development via targeting the lipid-transfer protein PfSTART1” (Nature Communications, 2024):

Key:
VPS51 (Q8I2A9) = assay: Solvent-PISA (solvent proteome profiling, DIA-MS); assay type: binding, Plasmodium falciparum; settings: WEHI991_vs_DMSO, gradient G1, VPS51
LSG1 (Q8ILF2) = assay: Solvent-PISA (solvent proteome profiling, DIA-MS); assay type: binding, Plasmodium falciparum; settings: WEHI991_vs_DMSO, gradient G1, LSG1
RECQ1 (Q8I2W7) = assay: Solvent-PISA (solvent proteome profiling, DIA-MS); assay type: binding, Plasmodium falciparum; settings: WEHI991_vs_DMSO, gradient G1, RECQ1
Hyp1-Nluc parasites = assay: Egress, invasion & recovery assay (Nluc bioluminescence, smears); assay type: cell-based, Plasmodium falciparum; settings: schizonts treated 4 h: M-833 2 µM, W-991 60 nM, ML10 30 nM, E64 10 µM, heparin 100 µg/mL; then washed off
Description: To measure egress, invasion, and follow-up recovery in the presence of different compounds, we adapted the method developed in[11], using Hyp1-Nluc parasites. A full description is in the Supplementary Information. […]
and compound 4. Note that M-833 was first purchased from MolPort (MolPort -002-267-916) then made in-house at WEHI: the differences observed in EC50s across experiments are attributed to the different batches of M -833. […]
Egress, invasion & recovery assay. To measure egress, invasion and follow up recovery in the presence of different compounds, we adapted the method developed in6, using Hyp1-Nluc parasites7. These parasites episomally express the exported PEXEL protein Hyp1 (PF3D7_0113300) tagged with a NanoLuc luciferase (NLuc) and were selected with 2.5 nM WR99210 (Jacobus). Highly synchronised schizonts were obtained using ML10 (LifeArc) and sorbitol synchronisation, and Percoll-purified (the culture was gently layered over 67% Percoll (Cytiva) in RPMI, and centrifuged for 15 min at 1500 g and the schizont layer was collected and washed). In a 96-well plate, […]
cultures were set up in 4 replicates (3 replicates for the Nluc readout, and one replicate for Giemsa smears) with 1-2% parasitemia, 2% haematocrit, with the following […]
100 μg/ml heparin (Sigma) and 10 μM E64 (Sigma). The schizonts were allowed to egress and invade for 4 h at 37°C. A “background” plate without treatment was left in the fridge during this time. After 4 h, cultures were sorbitol -treated to eliminate schizonts that have not egressed. Smears were made every day for the following 3 days, and 5 μL of the resuspended cultures were taken to measure Nluc activity (to assess parasite’s presence). To measure Nluc activity, 5 μL culture were added to 45 μL NanoGlo reagent (1x Promega lysis buffer and NanoGlo reagent; Promega). The average luminescence of the background cultures was subtracted to the average luminescence of each sample. […]
The viable parasite value was then expressed in log units and parasite reduction ratio was calculated as a decrease in […]

Row | Compound | Differential abundance (VPS51 (Q8I2A9)) | Differential abundance (LSG1 (Q8ILF2)) | Differential abundance (RECQ1 (Q8I2W7)) | parasite growth (Nluc bioluminescence) followed 72 h after 4 h treatment (Hyp1-Nluc parasites)
1 | CC(C)(Nc1ccc(Cl)c(S(=O)(=O)N2CCOCC2)c1)C(=O)Nc1ccc(F)c(Cl)c1 [WEHI991] | 0.7605 | 0.5417 | 0.6685 | 
2 | heparin [reference compound] |  |  |  | virtually no recovery after three days
